Values after ≈ are worked out from the molar mass of the structure shown.
What was measured:
[1] = test system: ρ^o cells (cell line 206); test: Growth inhibition studies in ρ° cells devoid of mitochondrial DNA; assay type: cell-based; conditions: for IC50 / 50% Growth Inhibition Dose: ρ° cells; for IC50: read-out: 50% Growth Inhibition Dose; for Ratio of 50% growth inhibition dose, ρ° to wild type (times more resistant): ρ° vs wild type 143B cells; for Relative toxicity/sensitivity in ρ^o vs wt cells (in words): cell model (B)
From the text: When an osteosarcoma cell line (143B; Wild type in Table 1 below) was exposed for prolonged periods to ethidium bromide a mutant completely devoid of mitochondrial DNA ρ^o was isolated. […] These processes are necessary for transmembrane proton pumping which creates an electronegative membrane potential (Δψmt) in the matrix side of the inner mitochondrial membrane. Since Rho 123 is a fluorescent dye, which due to its chemical positive charge accumulates in mitochondria, it is commonly used as an indicator of Δψmt.

implanted tumors = test: In vivo treatment of animals with implanted tumors; conditions: for Tumor response: animals with implanted tumors
From the text: This latter result provides evidence that manipulation of Oxphos and glycolysis simultaneously can cure tumors in animals. […] In this regard, several reports have shown that low levels of 2-dg can be safely administered to animals for various reasons including hypersensitization of tumors to irradiation.

[2] = test system: human breast carcinoma cells, MCF-7; test: Colony forming units after co-treatment with Rho 123 and 2-dg; assay type: cell-based
From the text: 218:1117-1119, 1982; Lampidis, T J, Bernal, S D, Summerhayes, I C, and Chen, L B. “Selective toxicity of Rhodamine 123 in carcinoma cells in vitro.” Cancer Res. 43:716-720, 1983; and Bernal, S B, Lampidis, T J, Mclsaac, B, and Chen, L B. “Anticarcinoma activity in vivo of Rhodamine 123, a mitochondrial-specific dye.” Science.

[3] = test system: osteosarcoma cell line (143B; Wild type); test: Growth inhibition studies in wild type 143B osteosarcoma cells; assay type: cell-based; conditions: for IC50: Homo sapiens, read-out: 50% Growth Inhibition Dose; for IC50 / 50% Growth Inhibition Dose: Wild type (143B) cells
143b cells = test: Lactate production in living cells (screen for inhibitors of oxidative phosphorylation); assay type: cell-based; conditions: for Change in lactate production (in words): increasing doses
From the text: Lactate (more commonly known as lactic acid) is an end product of glycolysis that is activated when a cell cannot use oxygen as its final electron acceptor. This occurs when cells are metabolizing anaerobically. Thus, under these conditions, pyruvate, which is the last end product of glycolysis during aerobic metabolism, is further metabolized to lactate. […] This discovery created a need for a screening method to identify agents which inhibit oxidative phosphorylation and thereby render a cell hypersensitive to glycolytic inhibitors. Consequently, we have developed a rapid and an inexpensive way to detect such agents by measuring increases in the production of lactate in living cells.
Such methodology provides a practical means for testing and or screening extensive libraries of structurally diverse compounds to identify inhibitors of oxidative phosphorylation as well as for obtaining new leads to design novel inhibitors of this fundamental cellular process.

[4] = test system: tumor cells (143B or MCF-7); test: Hypersensitization of tumor cells to glycolytic inhibitors (cell model (A)); assay type: cell-based; conditions: intact tumor cells
[5] = test system: wild type 143B (wt) and ρ^o cells (cell line 206); test: Flow cytometric analysis of Rho 123 accumulation/retention; assay type: cell-based; conditions: non-P-gp cell lines (143B wt and ρ^o)
Experimental: Flow cytometric analysis was performed in order to quantitate the differences observed microscopically between wild type 143B (wt) and ρ^o cells (designated as cell line 206) in their accumulation of Rho 123.
To ensure that our accumulation results were not complicated by P-gp-mediated MDR, since Rho 123 is a known substrate for this transporter, both cell types were examined for this gene by RT-PCR and were found not to express it.

IC50 [3] [µg/mL]	Molecule	IC50 [1] [µg/mL]	Ratio of 50% growth inhibition dose, ρ° to wild type (times more resistant) [1]	Change in lactate production (in words) (143b cells)	Hypersensitization of tumor cells to glycolytic inhibitors [4]	Relative toxicity/sensitivity in ρ^o vs wt cells (in words) [1]	also measured
0.01 (≈ 0.0184 µM)	COc1cccc2c1C(=O)c1c(O)c3c(c(O)c1C2=O)C[C@@](O)(C(=O)CO)C[C@@H]3O[C@H]1C[C@H](N)[C@H](O)[C@H](C)O1 [Doxorubicin]	0.01 (≈ 0.0184 µM)	1	little or no significant changes	do not hypersensitize	equitoxic	LACTATE (143b cells; dose 0.005 μg/ml): 5.1 +/− 0.4 μg/μg protein; LACTATE (143b cells; dose 0.01 μg/ml): 5.5 +/− 0.7 μg/μg protein
0.05 (≈ 0.0586 µM)	CC(=O)O[C@H]1C(=O)[C@@]2(C)[C@H]([C@H](OC(=O)c3ccccc3)[C@]3(O)C[C@H](OC(=O)[C@H](O)[C@@H](NC(=O)c4ccccc4)c4ccccc4)C(C)=C1C3(C)C)[C@]1(OC(C)=O)CO[C@@H]1C[C@@H]2O [Paclitaxel]	0.05 (≈ 0.0586 µM)	1	little or no significant changes	do not hypersensitize	equitoxic	LACTATE (143b cells; dose 0.0005 μg/ml): 5.6 +/− 0.7 μg/μg protein; LACTATE (143b cells; dose 0.001 μg/ml): 6.1 +/− 0.7 μg/μg protein; LACTATE (143b cells; dose 0.002 μg/ml): 6.6 +/− 0.3 μg/μg protein
	Cc1cc2nc3cc(C)c(N)cc3[n+](-c3ccccc3)c2cc1N.[Cl-] [Saffranin O]		6				50% Growth Inhibition Dose [1]: 2 µg/mL; 50% Growth Inhibition Dose [3]: 0.35 µg/mL
0.00075 (≈ 0.000925 µM)	CC[C@]1(O)C[C@@H]2CN(CCc3c([nH]c4ccccc34)[C@@](C(=O)OC)(c3cc4c(cc3OC)N(C)[C@H]3[C@@](O)(C(=O)OC)[C@H](OC(C)=O)[C@]5(CC)C=CCN6CC[C@]43[C@@H]65)C2)C1 [Vinblastine]	0.00075 (≈ 0.000925 µM)	1	little or no significant changes	do not hypersensitize	equitoxic	LACTATE (143b cells; dose 0.0005 μg/ml): 5.6 +/− 0.6 μg/μg protein; LACTATE (143b cells; dose 0.001 μg/ml): 6.3 +/− 0.9 μg/μg protein; LACTATE (143b cells; dose 0.002 μg/ml): 5.8 +/− 0.3 μg/μg protein
	COc1ccc(CCN(C)CCCC(C#N)(c2ccc(OC)c(OC)c2)C(C)C)cc1OC (stereo not drawn) [verapamil]						Effect on retention of Rho 123 [5]: increases the retention of Rho 123
	Rhodamine 123		50	lactate is accordingly increased	hypersensitize		LACTATE (143b cells; dose 0.25 μg/ml): 9.3 +/− 0.4 μg/μg protein; LACTATE (143b cells; dose 0.50 μg/ml): 13.2 +/− 0.2 μg/μg protein; LACTATE (143b cells; dose 1.0 μg/ml): 14.6 +/− 2.3 μg/μg protein; 50% Growth Inhibition Dose [1]: 50 µg/mL; Tumor response (implanted tumors): only partial or no responses; Colony forming units inhibited ([2]; MCF-7, Rho 123 at its 50% dose, 2-dg at a non-toxic dose): 50%; 50% Growth Inhibition Dose [3]: 1.0 µg/mL

Molecule	IC50 [3] [µg/mL]	IC50 [1] [µg/mL]	Ratio of 50% growth inhibition dose, ρ° to wild type (times more resistant) [1]	Change in lactate production (in words) (143b cells)	Hypersensitization of tumor cells to glycolytic inhibitors [4]	Relative toxicity/sensitivity in ρ^o vs wt cells (in words) [1]	also measured
O=CC[C@@H](O)[C@H](O)[C@H](O)CO [2-deoxy-glucose, 2-deoxy-D-glucose]	1000 (≈ 6090 µM)	50 (≈ 305 µM)	0.05				ID50 ([1]; ρ^o cells): 50 µg/mL (≈ 305 µM); Tumor response (implanted tumors): only partial or no responses; Safety of administration to animals (implanted tumors; doses effective for anti-tumor activity in combination with an Oxphos inhibitor): can be administered safely; Toxicity at the dose used for co-treatment ([2]; MCF-7, drug alone): no toxicity; ID50 ([3]; wt cells): 1000 µg/mL (≈ 6090 µM)

From patent US7338940B2, “Cancer treatment including glycolytic inhibitors” (priority 2000, dated 2008)
